Laboratory results published in patent US10975037B2 (priority 2018, dated 2021).
pIC50, pKd: −log10 of the molar value. Where a name gives a salt, the structure may show the parent alone. Read-outs that look alike come from different tables or passages of the source. Marks after values point to notes of the source that are not given here.

Columns and labels:
full-length human RORγt = full-length human RORγt (Homo sapiens (Human), UniProt P51449); assay: RORγt (full-length human) reporter assay, conditions A or B, HEK293T cells; assay type: cell-based; conditions: for inhibition at 2 µM: 2 μM compound concentration; for inhibition at 6 µM: read-out: RORγt (FL) Reporter Assay A or B, % inhibition @ 6 μM, 6 μM compound concentration
Chain of full-length human RORγt (P51449 other isoform, or with tags, fused parts or gaps): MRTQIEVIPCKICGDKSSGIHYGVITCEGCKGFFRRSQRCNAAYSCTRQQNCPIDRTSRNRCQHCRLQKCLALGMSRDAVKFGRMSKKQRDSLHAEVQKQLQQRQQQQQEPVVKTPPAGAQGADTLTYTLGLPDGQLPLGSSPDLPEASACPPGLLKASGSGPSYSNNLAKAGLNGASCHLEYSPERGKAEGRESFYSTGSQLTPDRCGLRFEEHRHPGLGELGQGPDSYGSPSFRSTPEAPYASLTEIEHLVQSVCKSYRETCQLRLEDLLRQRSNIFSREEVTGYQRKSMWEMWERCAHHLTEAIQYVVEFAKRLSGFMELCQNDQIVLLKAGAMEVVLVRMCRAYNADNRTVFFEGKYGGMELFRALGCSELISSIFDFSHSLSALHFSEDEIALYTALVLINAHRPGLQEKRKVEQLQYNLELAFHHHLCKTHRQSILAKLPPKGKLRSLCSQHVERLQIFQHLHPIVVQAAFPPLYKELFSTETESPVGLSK
Procedure, shortened: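 After 16–20 h, dual firefly/Renilla luciferase luminescence was read. Firefly signal was normalized to DMSO and saturating reference compound, then to Renilla, and fitted for IC50; % inhibition is versus DMSO.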

[1] = tested on: IL-17 production by CD4 T cells under conditions which favor Th17 differentiation; assay: Human Th17 assay (IL-17 production by CD4 T cells); assay type: cell-based; conditions: read-out: Human Th17 Assay, IC50
Procedure: The human Th17 assay tests the effect of RORγt modulatory compounds on IL-17 production by CD4 T cells under conditions which favor Th17 differentiation. Total CD4^+ T cells were isolated from the peripheral blood mononuclear cells (PBMC) of healthy donors using a CD4^+ T cell isolation kit II, following the manufacturer's instructions (Miltenyi Biotec). […] 50 μL of compound at titrated concentrations in DMSO were added into each well at final DMSO concentration at 0.2%. Cells were incubated for 1 hour, then 50 μL of Th17 cell differentiation medium was added to each well. […] Cells were cultured at 37° C. and 5% CO2 for 3 days. Supernatants were collected and the accumulated IL-17 in culture was measured by using MULTI-SPOT® Cytokine Plate following manufacture's instruction (Meso Scale Discovery). The plate was read using Sector Imager 6000, and IL-17 concentration was extrapolated from the standard curve. The IC50s were determined by GraphPad.

[2] = molecular target: human RORγt ligand binding domain (RORγt LBD) (Homo sapiens (Human), UniProt P51449); assay: RORγt ThermoFluor® assay (thermal shift binding)
Chain of human RORγt ligand binding domain (RORγt LBD) (P51449 other isoform, or with tags, fused parts or gaps): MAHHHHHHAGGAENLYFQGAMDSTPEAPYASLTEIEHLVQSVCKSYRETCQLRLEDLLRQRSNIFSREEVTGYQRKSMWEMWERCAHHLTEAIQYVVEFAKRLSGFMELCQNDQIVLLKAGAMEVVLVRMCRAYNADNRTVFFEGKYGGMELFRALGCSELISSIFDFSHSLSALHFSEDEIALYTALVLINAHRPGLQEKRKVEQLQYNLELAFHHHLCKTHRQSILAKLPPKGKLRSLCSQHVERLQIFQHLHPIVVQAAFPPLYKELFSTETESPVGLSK
Procedure, shortened: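 Thermal shift with 0.065 mg/mL RORγt LBD and 60 μM 1,8-ANS in 100 mM Hepes pH 7.0, 10 mM NaCl, 2.5 mM GSH, 0.002% Tween-20.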

[3] = HEK-293T, 3 μM compound concentration (footnote *), read-out: RORγt (FL) Reporter Assay A or B, % inhibition
[4] = RORγt (FL) Reporter Assay A or B, IC50, HEK293T cells
[5] = read-out: ThermoFluor® Assay, Kd
[6] = HEK-293T, read-out: RORγt (FL) Reporter Assay A or B, % inhibition
[7] = HEK-293T, 0.67 μM compound concentration (footnote ****), read-out: RORγt (FL) Reporter Assay A or B, % inhibition

Q: Which results are given for `Cc1c(C(=O)NC[C@]2(O)CC[C@@H](S(C)(=O)=O)CC2)nn(C)c1-c1ccc(CCCC(F)(F)F)cc1OC(F)F` [Example 161, 5-(2-(Difluoromethoxy)-4-(4,4,4-trifluorobutyl)phenyl)-N-(((1s,4s)-1-hydroxy-4-(methylsulfonyl)cyclohexyl)methyl)-1,4-dimethyl-1H-pyrazole-3-carboxamide]?
A: inhibition at 3 µM (full-length human RORγt; [3]): 81%; pIC50 (full-length human RORγt; [4]): 8.11; pIC50 ([1]; Homo sapiens, CD4+ T): 6.70; pKd [2, 5]: 7.49

Q: `CCn1nc(C(=O)NC[C@H]2CC[C@H](S(C)(=O)=O)CC2)c(Cl)c1-c1ccc(N[C@H](C)C(F)(F)F)cc1OC` [Example 23, 4-chloro-1-ethyl-5-(2-methoxy-4-(((R)-1,1,1-trifluoropropan-2-yl)amino)phenyl)-N-(((1 r,4R)-4-(methylsulfonyl)cyclohexyl)methyl)-1H-pyrazole-3-carboxamide] was tested. Which inhibition at 2 µM (full-length human RORγt; [6]) did it give?
A: The inhibition at 2 µM was 104%.

Q: And the pIC50 (full-length human RORγt; [4])?
A: Its pIC50 is 7.55.

Q: And the pIC50 ([1]; Homo sapiens, CD4+ T)?
A: Its pIC50 is 7.42.

Q: What about the pKd [2, 5] of the same compound?
A: The pKd was 8.34.

Q: For `COCCn1nc(C(=O)NC[C@H]2CC[C@H](S(C)(=O)=O)CC2)c(Cl)c1-c1ccc(N[C@H](C)C(F)(F)F)cc1OC` [Example 187, 4-Chloro-5-(2-methoxy-4-(((R)-1,1,1-trifluoropropan-2-yl)amino)phenyl)-1-(2-methoxyethyl)-N-(((1r,4R)-4-(methylsulfonyl)cyclohexyl)methyl)-1H-pyrazole-3-carboxamide], which inhibition at 6 µM (full-length human RORγt; HEK-293T) is on record?
A: Its inhibition at 6 µM is 104%.

Q: What about the pIC50 (full-length human RORγt; [4]) of the same compound?
A: Its pIC50 is 6.96.

Q: What about the pIC50 ([1]; Homo sapiens, CD4+ T) of the same compound?
A: The pIC50 was 7.27.

Q: What about the pKd ([2]; ThermoFluor® Assay, Kd) of the same compound?
A: Its pKd is 7.74.

Q: What does the source list for `COc1cc(N[C@H](C)C(F)(F)F)ccc1-c1c(Cl)c(C(=O)NC[C@H]2CC[C@H](S(C)(=O)=O)CC2)nn1CCC#N` [Example 129, 4-Chloro-1-(2-cyanoethyl)-5-(2-methoxy-4-(((R)-1,1,1-trifluoropropan-2-yl)amino)phenyl)-N-(((1r,4R)-4-(methylsulfonyl)cyclohexyl)methyl)-1H-pyrazole-3-carboxamide]?
A: inhibition at 6 µM (full-length human RORγt; HEK-293T): 102%; pIC50 (full-length human RORγt; [4]): 6.09; pIC50 ([1]; Homo sapiens, CD4+ T): 5.64; pKd ([2]; ThermoFluor® Assay, Kd): 7.14

Q: What does the source list for `COc1cc(N[C@H](C)C(F)(F)F)ccc1-c1c(Cl)c(C(=O)NC[C@H]2CC[C@H](S(C)(=O)=O)CC2)nn1CCO` [Example 201, 4-Chloro-1-(2-hydroxyethyl)-5-(2-methoxy-4-(((R)-1,1,1-trifluoropropan-2-yl)amino)phenyl)-N-(((r,4R)-4-(methylsulfonyl)cyclohexyl)methyl)-1H-pyrazole-3-carboxamide]?
A: inhibition at 6 µM (full-length human RORγt; HEK-293T): 82%; pIC50 (full-length human RORγt; [4]): 5.80; pIC50 ([1]; Homo sapiens, CD4+ T): 5.55; pKd [2, 5]: 6.70

Q: What does the source list for `CCn1nc(C(=O)NC[C@H]2CC[C@H](S(C)(=O)=O)CC2)c(Cl)c1-c1ccc(C[C@H](C)C(F)(F)F)cc1OC` (single isomer, unassigned) [Example 3, 4-Chloro-1-ethyl-5-(2-methoxy-4-((S*)-3,3,3-trifluoro-2-methylpropyl)phenyl)-N-(((1r,4R)-4-(methylsulfonyl)cyclohexyl)methyl)-1H-pyrazole-3-carboxamide]?
A: inhibition at 0.67 µM (full-length human RORγt; [7]): 98%; pIC50 (full-length human RORγt; [4]): 8.05; pIC50 ([1]; Homo sapiens, CD4+ T): 7.82; pKd ([2]; ThermoFluor® Assay, Kd): 9.20

Q: How did the inhibition at 3 µM (full-length human RORγt; [3]) turn out when `CCn1nc(C(=O)NC[C@]2(O)CC[C@@H](S(C)(=O)=O)C[C@H]2O)c(C)c1-c1ccc(C[C@H](C)C(F)(F)F)cc1OC(F)F` (stereo in doubt) [Example 58, 5-(2-(difluoromethoxy)-4-((S*)-3,3,3-trifluoro-2-methylpropyl)phenyl)-N-(((1R*,2R*,4R*)-1,2-dihydroxy-4-(methylsulfonyl)cyclohexyl)methyl)-1-ethyl-4-methyl-1H-pyrazole-3-carboxamide] was run?
A: Its inhibition at 3 µM is 100%.

Q: What about the pIC50 (full-length human RORγt; [4]) of the same compound?
A: Its pIC50 is 8.01.

Q: And the pIC50 ([1]; Homo sapiens, CD4+ T)?
A: The pIC50 was 7.72.

Q: And the pKd ([2]; ThermoFluor® Assay, Kd)?
A: The pKd was 8.59.

Q: For `CCn1nc(C(=O)NC[C@]2(O)CC[C@@H](S(C)(=O)=O)CC2)c(Cl)c1-c1ccc(CC(C)C(F)(F)F)cc1OC(F)(F)F` (stereo partly drawn) [Example 191, 4-Chloro-1-ethyl-N-(((1s,4s)-1-hydroxy-4-(methylsulfonyl)cyclohexyl)methyl)-5-(4-(3,3,3-trifluoro-2-methylpropyl)-2-(trifluoromethoxy)phenyl)-1H-pyrazole-3-carboxamide], which inhibition at 0.67 µM (full-length human RORγt; [7]) is on record?
A: Its inhibition at 0.67 µM is 69%.

Q: And the pIC50 (full-length human RORγt; [4])?
A: Its pIC50 is 7.66.

Q: And the pIC50 ([1]; Homo sapiens, CD4+ T)?
A: The pIC50 was 7.20.

Q: What about the pKd [2, 5] of the same compound?
A: Its pKd is 8.82.

Q: Which inhibition at 0.67 µM (full-length human RORγt; [7]) does the source give for `CCn1nc(C(=O)NC[C@]2(O)CC[C@@H](S(C)(=O)=O)CC2)c(Cl)c1-c1ccc(CC(C(F)(F)F)C(F)(F)F)cc1OC` [Example 85, 4-Chloro-1-ethyl-N-(((1s,4s)-1-hydroxy-4-(methylsulfonyl)cyclohexyl)methyl)-5-(2-methoxy-4-(3,3,3-trifluoro-2-(trifluoromethyl)propyl)phenyl)-1H-pyrazole-3-carboxamide] here?
A: Its inhibition at 0.67 µM is 103%.

Q: And the pIC50 (full-length human RORγt; [4])?
A: The pIC50 was 8.59.

Q: And the pIC50 ([1]; Homo sapiens, CD4+ T)?
A: Its pIC50 is 8.03.

Q: What about the pKd [2, 5] of the same compound?
A: Its pKd is 9.37.

Q: Which inhibition at 3 µM (full-length human RORγt; [3]) does the source give for `CCn1nc(C(=O)NC[C@]2(N)CC[C@@H](S(C)(=O)=O)CC2)c(Cl)c1-c1ccc(CC(C)(C)C(F)(F)F)cc1OC(F)F` [Example 19, N-(((1s*,4s*)-1-Amino-4-(methylsulfonyl)cyclohexyl)methyl)-4-chloro-5-(2-(difluoromethoxy)-4-(3,3,3-trifluoro-2,2-dimethylpropyl)phenyl)-1-ethyl-1H-pyrazole-3-carboxamide 2,2,2-trifluoroacetic acid salt] here?
A: The inhibition at 3 µM was 122%.

Q: What about the pIC50 ([1]; Homo sapiens, CD4+ T) of the same compound?
A: The pIC50 was 7.85.

Q: What does the source list for `CCn1nc(C(=O)NC[C@H]2CC[C@H](S(C)(=O)=O)CC2)c(Cl)c1-c1ccc(CCC(F)(F)F)cc1OC(F)F` [Example 222, 4-Chloro-5-(2-(difluoromethoxy)-4-(3,3,3-trifluoropropyl)phenyl)-1-ethyl-N-(((1r,4r)-4-(methylsulfonyl)cyclohexyl)methyl)-1H-pyrazole-3-carboxamide]?
A: RORγt (FL) Reporter Assay A or B, % inhibition (full-length human RORγt; 3 μM compound concentration (footnote *)): 101* %; pIC50 (full-length human RORγt; HEK293T cells, read-out: RORγt (FL) Reporter Assay A or B, IC50): 8.21; pIC50 [1]: 7.96; pKd [2, 5]: 9.12

Q: Which results are given for `CCn1nc(C(=O)NC[C@]2(CO)CC[C@@H](S(C)(=O)=O)CC2)c(Cl)c1-c1ccc(CC(C)C(F)(F)F)cc1OC` (stereo partly drawn) [Example 92, 4-Chloro-1-ethyl-N-(((1s*,4s*)-1-(hydroxymethyl)-4-(methylsulfonyl)cyclohexyl)methyl)-5-(2-methoxy-4-(3,3,3-trifluoro-2-methylpropyl)phenyl)-1H-pyrazole-3-carboxamide]?
A: inhibition at 0.67 µM (full-length human RORγt; [6]): 87%; pIC50 (full-length human RORγt; [4]): 7.18; pIC50 ([1]; Homo sapiens, CD4+ T): 6.57; pKd [2, 5]: 7.41

Q: For `CCn1nc(C(=O)NC[C@H]2CC[C@H](S(C)(=O)=O)CC2)c(Cl)c1-c1ccc(CC(C)(C)C(F)(F)F)cc1OC` [Example 44, 4-chloro-1-ethyl-5-(2-methoxy-4-(3,3,3-trifluoro-2,2-dimethylpropyl)phenyl)-N-(((1r,4r)-4-(methylsulfonyl)cyclohexyl)methyl)-1H-pyrazole-3-carboxamide], which inhibition at 0.67 µM (full-length human RORγt; [7]) is on record?
A: Its inhibition at 0.67 µM is 96%.

Q: What about the pIC50 ([1]; Homo sapiens, CD4+ T) of the same compound?
A: The pIC50 was 8.28.

Q: How did the inhibition at 2 µM (full-length human RORγt; [6]) turn out when `CCn1nc(C(=O)NC[C@H]2CC[C@H](S(C)(=O)=O)CC2)c(Cl)c1-c1ccc(N[C@H](C)C(F)(F)F)cc1` [Example 194, 4-Chloro-1-ethyl-N-(((1r,4R)-4-(methylsulfonyl)cyclohexyl)methyl)-5-(4-(((R)-1,1,1-trifluoropropan-2-yl)amino)phenyl)-1H-pyrazole-3-carboxamide] was run?
A: The inhibition at 2 µM was 93%.

Q: And the pIC50 (full-length human RORγt; [4])?
A: The pIC50 was 6.92.

Q: And the pKd [2, 5]?
A: The pKd was 7.54.

Q: How did the inhibition at […] (full-length human RORγt; HEK-293T, 0.22 μM compound concentration (footnote *******), read-out: RORγt (FL) Reporter Assay A or B, % inhibition) turn out when `CCn1nc(C(=O)NC[C@]2(O)CC[C@@H](S(C)(=O)=O)CC2)c(Cl)c1-c1ccc(CC(C)(C)C(F)(F)F)cc1C(F)(F)F` [Example 163, 4-Chloro-1-ethyl-N-(((1s,4s)-1-hydroxy-4-(methylsulfonyl)cyclohexyl)methyl)-5-(4-(3,3,3-trifluoro-2,2-dimethylpropyl)-2-(trifluoromethyl)phenyl)-1H-pyrazole-3-carboxamide] was run?
A: Its inhibition at […] is 78%.

Q: What about the pIC50 (full-length human RORγt; [4]) of the same compound?
A: Its pIC50 is 8.48.

Q: What about the pKd [2, 5] of the same compound?
A: Its pKd is 9.20.

Q: What does the source list for `CCn1nc(C(=O)NC[C@]2(CO)CC[C@@H](S(C)(=O)=O)CC2)c(Cl)c1-c1ccc(CC(C)(C)C(F)(F)F)cc1OC(F)F` [Example 91, 4-Chloro-5-(2-(difluoromethoxy)-4-(3,3,3-trifluoro-2,2-dimethylpropyl)phenyl)-1-ethyl-N-(((1s*,4s*)-1-(hydroxymethyl)-4-(methylsulfonyl)cyclohexyl)methyl)-1H-pyrazole-3-carboxamide]?
A: inhibition at 1 µM (full-length human RORγt; HEK-293T, 1 μM compound concentration (footnote ***), read-out: RORγt (FL) Reporter Assay A or B, % inhibition): 99%; pIC50 (full-length human RORγt; [4]): 8.43; pKd [2, 5]: 9.62
